Key:
[1] = test system: mouse tracheal rings; assay: Isometric force measurements of mouse tracheal rings on wire-myograph; details: 100 µM, 10 min pre-treatment, C48/80 30 µg/mL
Description: The MRGPRX2/MRGPRB2 agonist C48/80 was previously reported to induce tracheal contractions in WT mice, a response that was absent in mice with a frameshift mutation in Mrgprb2.[53] We investigated whether this effect could be blocked by PSB-172656, the potent MRGPRX2/MRGPRB2 antagonist. Therefore, the force of tracheal contractions induced by C48/80 (30 µg/mL) in mouse tracheal rings was measured using a wire myograph, confirming the compound’s ability to […] tracheal contractions (Fig. 7c, d).
Isometric force measurements were performed as described previously.[68] In detail, tracheas of C57BL/6 mice were isolated and cut into rings in cold low-calcium physiological saline solution (PSS), containing 118 mM NaCl, 5 mM KCl, 1.2 mM MgCl2, 1.5 mM NaH2PO4, 0.16 mM CaCl2, 10 mM glucose and 24 mM Hepes (pH 7.4). Rings were mounted on a wire-myograph (Multi Myograph 620 M, Danish Myo Technology, Aarhus, Denmark) and pre-stretched to 5 mN in PSS, containing 118 mM NaCl, 5 mM KCl, 1.2 mM MgCl2, 1.5 mM NaH2PO4, 1.6 mM CaCl2, 10 mM glucose, and 24 mM Hepes (pH 7.4). After equilibration for 20 min, maximal constriction was induced by methacholine (MCh, 10 μM, A2251, Sigma-Aldrich, Germany). […] Force amplitudes were always analyzed at the strongest contraction of tracheal rings. […] Statistical significance was determined by an unpaired Student’s t-test, *P < 0.05.

[2] = target: T1, MRGPRX2 (Homo sapiens, UniProt Q96LB1); assay: β-arrestin assay (agonist mode), β-arrestin CHO cells recombinantly expressing MRGPRX2; type: cell-based; details: for EC50: agonist test, read-out: β-Arrestin assay EC50 ± SEM; for β-Arrestin assay % activation: normalized to CST-14 (EC80 5,000 nM)
T1 sequence (Q96LB1 1-330): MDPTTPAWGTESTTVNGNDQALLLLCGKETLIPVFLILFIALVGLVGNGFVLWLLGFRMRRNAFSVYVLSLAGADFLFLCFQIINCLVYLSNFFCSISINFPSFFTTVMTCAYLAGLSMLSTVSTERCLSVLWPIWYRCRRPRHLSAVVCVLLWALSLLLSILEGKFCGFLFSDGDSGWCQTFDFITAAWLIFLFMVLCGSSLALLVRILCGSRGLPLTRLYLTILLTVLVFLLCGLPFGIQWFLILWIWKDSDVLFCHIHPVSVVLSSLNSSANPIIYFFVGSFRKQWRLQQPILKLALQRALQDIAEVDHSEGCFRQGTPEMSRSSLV
Excerpt: Eurofins DiscoverX (Fremont, CA, USA) provided engineered Chinese hamster ovary (CHO) cells stably expressing β-arrestin-2 fused to a large β-galactosidase fragment (enzyme acceptor, EA). These CHO-K1-β-arrestin-2 cells were commercially available (93-0164). CHO-K1-β-arrestin-2 cells that additionally expressed MRGPRX1, -2, or -4 fused to the fragment ProLink™ (PK) were also purchased from the same company (93-0919C2, 93-0309C2, and 3-0541C2A, respectively). CHO cells expressing MRGPRX3 were generated as previously […].[31] The cells were grown in F-12 Ham Nutrient Mixture (Life Technologies) supplemented with 10% FBS, 100 U/mL of penicillin, 100 µg/mL of streptomycin (PAN-Biotech), 300 μg/mL of hygromycin B (PAN-Biotech), and 800 μg/mL of gentamicin (PAN-Biotech) at 37 °C and 5% CO2.).
The assays were carried out as previously described.[22] […] After 30 min of incubation at 37 °C and 5% CO2, Cortistatin-14 (CST-14, Bioscience, Bristol, United Kingdom) or another MRGPRX2 agonist that served as a standard agonist was added, and the mixture was incubated for 90 min at 37 °C and 5% CO2. Next, a detection reagent (50 µL, DiscoverX) was added, and the mixture was incubated at room temperature in the dark for 60 min. Chemiluminescence was measured on a Mithras LB 940 plate reader (Berthold Technologies, Bad Wildbad, Germany). The results represent means ± SEM of three to five independent experiments, each in duplicates.
^d β-Arrestin CHO cells recombinantly expressing MRGPRX2
^f Percentage of activation of normalized to CST-14 (EC80 5,000 nM)

[3] = target: T1, MRGPRX2; assay: Ca2+ mobilization assay, LN229 cells overexpressing MRGPRX2; type: cell-based; set-up: expressed in transfected cells; host or cells: LN229 human glioblastoma cells; plasmid pLXSN-MRGPRX2 (Addgene #213960); details: for Ki: versus CST-14 (EC80 800 nM, EC50 452 nM), Cheng-Prusoff, read-out: Ca2+ assay Ki ± SEM

Row | Structure (SMILES) | effect on C48/80-induced tracheal contractions ([1]; listed as PSB-172565) | effect on C48/80-induced tracheal contractions ([1]; listed as PSB-172656) | EC50 [2] [nM] | β-Arrestin assay % activation [2] [%] | fold higher potency compared to the 8-monofluorinated derivative (30) [3] | fold increase in potency compared to 10 [3] [fold] | fold increase in potency compared to hit compound 1 [3] [fold] | MRGPRX2 antagonistic potency in Ca2+ assay, in words ([3]; versus CST-14) | Ki [3] [nM] | agonistic activity in Ca2+ assays [3]
1 | CCc1c(C(C)C)[nH]c2nc3cc(F)c(F)cc3n2c1=O [Compound 24, 3-ethyl-7,8-difluoro-2-isopropylbenzo[4,5]imidazo [1,2-a] pyrimidin-4(1H)-one] | potently blocks tracheal contractions | effectively blocked the contractions | > 10000 | -1 | about 4 fold | 7 | 1870 | subnanomolar potencies | 0.142 | –
2 | CCCc1c(C)[nH]c2nc3ccccc3n2c1=O [Compound 1, 2-methyl-3-propylbenzo[4,5]imidazo[1,2-a]pyrimidin-4(1H)-one] | – | – | > 10000 | 1 | – | – | – | – | 246 ± 125 | did not show any agonistic activity

Source: article PMC12010006, “Subnanomolar MAS-related G protein-coupled receptor-X2/B2 antagonists with efficacy in human mast cells and disease models” (Signal Transduction and Targeted Therapy, 2025)
